Data taken from US8940900B2, “2,2,2-tri-substituted acetamide derivatives as glucokinase activators, their process and pharmaceutical application” (Advinus Therapeutics Private Limited, priority 2007, dated 2015).
One block for each compound: values may come before it.

Columns and labels:
[1] = molecular target: T1, purified human recombinant GK (Homo sapiens, UniProt P35557); experiment: Glucokinase activity, coupled enzymatic assay (NADH absorbance at 340 nm); type: biochemical; conditions: 5 mM glucose; read-out: EC50 values for GK activation at 5 mM Glucose conc
T1 sequence (P35557 1-465): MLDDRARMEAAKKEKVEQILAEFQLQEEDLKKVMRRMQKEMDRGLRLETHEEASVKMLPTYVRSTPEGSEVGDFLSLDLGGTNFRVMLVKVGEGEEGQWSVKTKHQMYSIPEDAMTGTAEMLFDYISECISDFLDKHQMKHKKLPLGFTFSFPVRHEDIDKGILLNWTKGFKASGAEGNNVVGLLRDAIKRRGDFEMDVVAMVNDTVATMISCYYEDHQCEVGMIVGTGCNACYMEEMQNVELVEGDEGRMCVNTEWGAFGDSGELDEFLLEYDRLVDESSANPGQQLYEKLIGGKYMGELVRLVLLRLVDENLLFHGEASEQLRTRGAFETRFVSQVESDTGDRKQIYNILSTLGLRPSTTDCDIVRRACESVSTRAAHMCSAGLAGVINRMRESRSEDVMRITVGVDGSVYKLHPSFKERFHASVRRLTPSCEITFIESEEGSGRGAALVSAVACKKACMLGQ
Description: (§1) Glucokinase (GK) activity, in vitro, has been measured using a coupled enzymatic assay (Ref: Hariharan et al (1997) Diabetes 46: 11-16). GK catalyzes the first step, the conversion of glucose to glucose-6-phosphate (G6P) in the presence of ATP. G6P in turn is converted by glucose-6-phosphate dehydrogenase (G6PD) to 6-phosphogluconate, a process that requires NAD, resulting in NADH formation. Since the GK-catalyzed step is the rate-limiting step of this coupled enzymatic process, the rate of accumulation of 6-phosphogluconate and NADH is directly proportional to the rate of glucose phosphorylation by GK. The rate of the GK-catalyzed reaction can therefore be measured by monitoring the increase in NADH absorbance at 340 nm.
(§2) The assay is carried out according to the protocol outlined in Hariharan et al (1997), Diabetes 46: 11-16. Briefly, the test compounds are incubated in a reaction mix containing 25 mM HEPES (pH 7.2), 10 mM MgCl2, 100 mM KCl, 5 mM ATP, 2 mM DTT, 0.5 mM NAD, 1 U/ml Leuconostoc mesenteroides G6PD, 0.3 U/ml of purified human recombinant GK, and different concentrations of glucose. Enzymatic activity is calculated from the initial reaction velocity, measured from the change in NADH absorbance as a function of time.
Compounds described in formula (I), in concentration ranges from 1.0 nM to 500 μM, are tested in purified human recombinant Glucokinase assay described above.
A compound is considered to be a glucokinase activator if it, in its testable range of concentrations, yields a higher rate of glucose phosphorylation than in its absence.

[2] = molecular target: T1, purified human recombinant GK; experiment: Characterization of partial glucokinase activators: dose dependent effect on % ΔS0.5 of glucokinase for glucose; type: biochemical; conditions: for EC50: sigmoidal fit of % ΔS0.5 vs log concentration, read-out: EC50 (measured against % ΔS0.5); for Classification as partial or full GK activator: compared to Ro-28-1675, partial = S0.5 shift between 20% and 90%, full = 90% or more
Protocol: The ΔS0.5 is then normalized to a percent scale, where the S0.5 in the vehicle control is set to 0% and 0 mM glucose is set to 100%. […] The EC50 of % change in S0.5 is obtained from the sigmoidal fit of the data.
The change in the S0.5 of glucokinase (ΔS0.5) for glucose in the presence of Examples A11, O15 and J1 is calculated by subtracting the S0.5 at each concentration of each Example from the S0.5 in the vehicle control. The ΔS0.5 is then normalized to a percent scale, where the S0.5 in the vehicle control is set to 0% and 0 mM glucose is set to 100%. The % ΔS0.5 is then plotted against the log of the concentration of each Example.
FIG. 2B illustrates such a derived plot, taking S0.5 data from FIG. 2A.
as §1, §2
Compounds of interest are tested in GK assay to monitor dose dependent effect on Glucokinase activation (in kinetic mode), as described above, at various glucose concentration.

[3] = test system: primary rat hepatocytes; experiment: Glycogen synthesis in primary rat hepatocytes; type: cell-based; conditions: 3 hours, over DMSO control
Protocol: Primary hepatocytes are collected from male Wistar rats, and tested for viability by trypan blue exclusion. […] The medium is then replaced with fresh MEM (serum-free) containing 2 μCi/ml of D-[U^14C]-Glucose along with 10 μM of the compound in a final DMSO concentration of 0.1%. The final glucose concentration is brought to 10 mM by the addition of D-Glucose (MEM already contains 5 mM glucose). The cells are incubated for 3 hours at 37° C. […] After another round of centrifugation, the supernatant is removed, and the pellet containing the precipitated glycogen is dried overnight. De novo synthesized glycogen is estimated in a scintillation counter (MicroBeta Trilux, Perkin Elmer), and expressed as fold increase over DMSO control.
The protocol for isolation of primary rat hepatocytes is based on the method described in “Methods in Enzymology, Vol. III. pp 34-50. Ed. by S. P. Colowick and N. O. Kaplan.
Compounds described in formula (I), in concentration ranges from 1.0 nM to 500 μM, are tested in glycogen synthesis assay described above.

[4] = animal efficacy models; PSN-GK1 at higher dose; cited from earlier work
[5] = Table 3, vehicle S0.5 = 0%, 0 mM glucose = 100%
[6] = Table 4, partial glucokinase activators

melting point: 117 to 118 °C
Compound: CC(C)(Oc1ccc2ccccc2c1)C(=O)Nc1nccs1 [Example A5, 2-Methyl-2-(naphthalen-2-yloxy)-N-thiazol-2-yl-propionamide]

EC50 [1]: 1.8 µM | EC50 ([2]; Table 3): 1.2 µM | Emax [2, 5]: 55% | Classification as partial or full GK activator [2]: partial GK activators
Compound: CC(Oc1ccc(F)cc1F)(C(=O)Nc1ncc(Cl)s1)c1ccc(S(=O)(=O)C2CC2)cc1 (stereo not shown) [Example O15, N-(5-Chloro-thiazol-2-yl)-2-(4-cyclopropanesulfonyl-phenyl)-2-(2,4-difluoro-phenoxy)-propionamide]

EC50 [1]: 4.5 µM | EC50 ([2]; Table 3): 3 µM | Emax [2, 5]: 55% | Classification as partial or full GK activator [2]: partial GK activators
Compound: CC(C)(Oc1ccc(F)cc1F)C(=O)Nc1nc(CC(=O)Nc2ccc(F)cc2)cs1 [Example J1, 2-(2,4-Difluoro-phenoxy)-N-{4-[(4-fluoro-phenylcarbamoyl)-methyl]-thiazol-2-yl}-2-methyl-propionamide]

EC50 [1]: 5.4 µM
Compound: Cc1cnc(NC(=O)C(C)(Oc2ccc(F)cc2F)c2ccc(S(C)(=O)=O)cc2)s1 (stereo not shown) [Example O16, 2-(2,4-Difluoro-phenoxy)-2-(4-methanesulfonyl-phenyl)-N-(5-methyl-thiazol-2-yl)-propionamide]

Emax [2, 6]: 50%
Compound: CC(Oc1ccc(F)c(F)c1)(C(=O)Nc1ncc(Cl)s1)c1ccc(S(C)(=O)=O)cc1 (stereo not shown) [Example O20, N-(5-Chloro-thiazol-2-yl)-2-(3,4-difluoro-phenoxy)-2-(4-methanesulfonyl-phenyl)-propionamide]

Compound: CC(C)(Oc1ccc2[nH]ccc2c1)C(=O)Nc1ncc(Cl)s1 [Example A17, N-(5-Chloro-thiazol-2-yl)-2-(1H-indol-5-yloxy)-2-methyl-propionamide]
Fold increase in glycogen synthesis at 10 μM Compound ([3]; Table 2, 10 mM glucose): 2.9 fold

Emax [2, 6]: 60%
Compound: CC(Oc1ccc(Cl)cc1)(C(=O)Nc1ncc(Cl)s1)c1ccc(S(C)(=O)=O)cc1 (stereo not shown) [Example O18, 2-(4-Chloro-phenoxy)-N-(5-chloro-thiazol-2-yl)-2-(4-methanesulfonyl-phenyl)-propionamide]

Emax [2, 6]: 40%
Compound: CC(C)(Oc1ccc2c(c1)OCO2)C(=O)Nc1nc(CC(=O)Nc2ccc(F)cc2)cs1 [Example J2, 2-(Benzo[1,3]dioxol-5-yloxy)-N-{4-[(4-fluoro-phenylcarbamoyl)-methyl]-thiazol-2-yl}-2-methyl-propionamide]
Fold increase in glycogen synthesis at 10 μM Compound ([3]; Table 5, 10 mM glucose): 1.8 fold

Compound: CS(=O)(=O)c1ccc([C@@H](CC2CCCC2)C(=O)Nc2nccs2)cc1 [Ro-28-1675]
Hypoglycemia [4]: cause hypoglycemia in animal efficacy models

Compound: 2-(2,4-Difluoro-phenoxy)-2-methyl-N-(1H tetrazol-5-yl)-propionamide [Example A27]
EC50 [1]: 7 µM

melting point: 166 to 168 °C
Compound: CC(C)(Oc1cccc(C(=O)O)c1)C(=O)Nc1nccs1 [Example K1, 3-[1-Methyl-1-(thiazol-2-ylcarbamoyl)-ethoxy]-benzoic acid]

EC50 [1]: 1.8 µM | EC50 ([2]; Table 3): 1.25 µM | Emax [2, 5]: 7% | Classification as partial or full GK activator [2]: partial GK activators
Compound: CC(C)(Oc1ccc(F)cc1F)C(=O)Nc1ncc(Cl)s1 [Example A11, N-(5-Chloro-thiazol-2-yl)-2-(2,4-difluoro-phenoxy)-2-methyl-propionamide]

EC50 [1]: 7 µM | melting point: 109 to 111 °C
Compound: CC(Oc1ccc(F)cc1F)(C(=O)Nc1nc(CC(=O)O)c(Cl)s1)c1ccc(S(C)(=O)=O)cc1 (stereo not shown) [Example P1, {5-Chloro-2-[2-(2,4-difluoro-phenoxy)-2-(4-methanesulfonyl-phenyl)-propionylamino]-thiazol-4-yl}-acetic acid]

melting point: 89 to 90 °C
Compound: CC(Oc1ccc(F)cc1F)(C(=O)Nc1nccs1)c1ccc(S(C)(=O)=O)cc1 (stereo not shown) [Example O1, 2-(2,4-Difluoro-phenoxy)-2-(4-methanesulfonyl-phenyl)-N-thiazol-2-yl-propionamide]

Compound: CC(Oc1ccc(F)cc1F)(C(=O)Nc1ncc(F)s1)c1ccc(S(C)(=O)=O)cc1 (stereo not shown) [Example O9, 2-(2,4-Difluoro-phenoxy)-N-(5-fluoro-thiazol-2-yl)-2-(4-methanesulfonyl-phenyl)-propionamide]
Fold increase in glycogen synthesis at 10 μM Compound ([3]; Table 5, 10 mM glucose): 2.8 fold

Compound: CC(Oc1ccc(F)cc1F)(C(=O)Nc1ccc(C(=O)O)cn1)c1ccc(S(=O)(=O)C2CC2)cc1 (stereo not shown) [Example P5, 6-[2-(4-Cyclopropanesulfonyl-phenyl)-2-(2,4-difluoro-phenoxy)-propionylamino]-nicotinic acid]
Fold increase in glycogen synthesis at 10 μM Compound ([3]; Table 2, 10 mM glucose): 3.2 fold

Compound: CC(C)(Oc1ccc(F)cc1F)C(=O)Nc1ncc(F)s1 [Example A22, 2-(2,4-Difluoro-phenoxy)-N-(5-fluoro-thiazol-2-yl)-2-methyl-propionamide]
Fold increase in glycogen synthesis at 10 μM Compound ([3]; Table 5, 10 mM glucose): 2.3 fold

melting point: 148 to 149 °C
Compound: CCC(C)(Oc1ccc(F)cc1F)C(=O)Nc1nc(CC(=O)O)cs1 (stereo not shown) [Example H1, {2-[2-(2,4-Difluoro-phenoxy)-2-methyl-butyrylamino]-thiazol-4-yl}-acetic acid]

Emax [2, 6]: 75%
Compound: CC(Oc1ccc(F)cc1F)(C(=O)Nc1ncc(Cl)s1)c1ccc(S(C)(=O)=O)cc1 (stereo not shown) [Example O19, N-(5-Chloro-thiazol-2-yl)-2-(2,4-difluorophenoxy)-2-(4-methanesulfonyl-phenyl)-propionamide]

melting point: 67 to 68 °C
Compound: CSc1ccc(OC(C)(C(=O)Nc2ncc(Cl)s2)c2ccc(S(C)(=O)=O)cc2)cc1 (stereo not shown) [Example O4, N-(5-Chloro-thiazol-2-yl)-2-(4-methanesulfonyl-phenyl)-2-(4-methylsulfanyl-phenoxy)-propionamide]

EC50 [1]: 7.1 µM | Emax [2, 6]: 60%
Compound: CCC(C)(Oc1ccc(F)cc1F)C(=O)Nc1ncc(Cl)s1 (stereo not shown) [Example G7, N-(5-Chloro-thiazol-2-yl)-2-(2,4-difluoro-phenoxy)-2-methyl-butyramide]

EC50 [1]: 2.2 µM | Emax [2, 6]: 75%
Compound: CC(C)(Oc1ccc2c(c1)OCO2)C(=O)Nc1ncc(Cl)s1 [Example A10, 2-(Benzo[1,3]dioxol-5-yloxy)-N-(5-chloro-thiazol-2-yl)-2-methyl-propionamide]

Emax [2, 6]: 50%
Compound: CC(C)(Oc1ccc(F)cc1F)C(=O)Nc1nc(CC(=O)Nc2ccc(F)cc2)c(Cl)s1 [Example J4, N-{5-Chloro-4-[(4-fluoro-phenylcarbamoyl)-methyl]-thiazol-2-yl}-2-(2,4-difluoro-phenoxy)-2-methyl-propionamide]

EC50 [1]: > 14 µM
Compound: CC(Oc1ccc(F)cc1F)(C(=O)Nc1ccc(C(=O)O)cn1)c1ccc(S(C)(=O)=O)cc1 (stereo not shown) [Example P4, 6-[2-(2,4-Difluoro-phenoxy)-2-(4-methanesulfonyl-phenyl)-propionylamio]-nicotinic acid]
